Results published in US12492163B2, “9H-fluorene derivatives or their pharmaceutically acceptable salts” (priority 2020, dated 2025).
pIC50: −log10 of the molar value.

What was measured:
Assay type in all cases: biochemical
[1] = biological target: human plasma butyrylcholinesterase (hBuChE) (Homo sapiens (Human), UniProt P06276); assay: Ellman's test, inhibition of human plasma butyrylcholinesterase; details: for inhibition at 1 µM: 1 μM inhibitor concentration, read-out: hBuChE % inh
Experimental: (§1) The spectrophotometric Ellman's test [Ellman et al.] modified for assays in 96-well plates was used to test the activity. Reagents: 5,5′-dithiobis-(2-nitrobenzoic acid) (DTNB), eqBuChE and butyrylthiocholine iodide (BTC) were purchased from Sigma-Aldrich (Steinheim, Germany). hBuChE was from Vivonics (Bedford, MA, USA). The enzymes were prepared by dissolving in demineralized water to a concentration of 0.384 U/ml. Stock solutions of test compounds were prepared by dissolving in DMSO to a concentration of 0.0034 M. They were then diluted with water to obtain the appropriate concentrations in the wells. In the first step of the test, 25 μl of test compound (or DMSO/water mixture at the appropriate ratio for blank samples) was incubated in 0.1 M phosphate buffer (200 μl, pH=8.0) with DTNB (20 μl; 0.0025M) and with the appropriate enzyme (20 μl; eqBuChE or hBuChE) at 25° C. (animal enzyme) or 36° C. (human enzyme). After a 5 minutes incubation period, 20 μl of BTC solution (0.00375 M) was added. After another 5 minutes, the changes in absorbance of the solutions were measured at 412 nm using a multifunctional microplate reader (EnSpire Multimode; PerkinElmer; Waltham, MA, USA). All compounds were tested at a screening concentration of 10 μM (eqBuChE) or 1 μM (hBuChE). The percentage of enzyme inhibition was calculated from the equation 100-(S/B)×100, where S and B were the enzymatic activity in the test sample well and in the well without sample, respectively. […] All reactions were performed in triplicate. IC50 values were calculated using non-linear regression (GraphPad Prism 5 [GraphPad Software, San Diego, CA, USA 5.00]) for the percentage of enzyme inhibition against the inhibitor concentration used. Tacrine and donepezil were used as reference compounds.

[2] = biological target: horse plasma butyrylcholinesterase (eqBuChE) (Equus caballus (Horse), UniProt P81908); assay: Ellman's test, inhibition of horse plasma butyrylcholinesterase
Experimental: as §1

[3] = biological target: human recombinant beta-secretase (hBACE1) (Homo sapiens (Human), UniProt P56817); assay: FRET assay, inhibition of human recombinant beta-secretase; details: for pIC50: read-out: hBACE-1 IC50; for inhibition at 50 µM: 50 μM inhibitor concentration, read-out: hBACE-1 % inh
Experimental: The FRET assay [Vassar, et al.] was used to test activity using 384-well black plates and a microplate reader (EnSpire Multimode; PerkinElmer; Waltham, MA, USA). The test was purchased from Life Technologies Polska Sp. z o.o. (Warsaw, Poland). […] Stock solutions of test compounds were prepared in DMSO and then further diluted with assay buffer (50 mM sodium acetate; pH 4.5) to the appropriate concentrations in the wells. In the first step of the test, 10 μl of the substrate (Rh-[…] quencher, based on the so-called Swedish APP mutation) was mixed with 10 μl of the test compound (or assay buffer; for blank sample). The enzyme reaction was initiated by adding 10 μl of enzyme (hBACE1, 1 U/ml). The reaction mixture was incubated at 25° C. for 60 minutes, then 10 μL of Stop solution (2.5 M sodium acetate) was added. After stopping the reaction, fluorescence was measured at 576 nm. The percentage of enzyme inhibition was calculated from the formula [1−(S60−S0)/(C60−C0)]×100, where S0 and S60 are the fluorescence of the test sample (containing the enzyme, substrate and test compound) at the start of the reaction and after 60 minutes, respectively, whereas C0 and C60 were analogous fluorescence intensities in the blank samples (containing enzyme, substrate and buffer). All test compounds were tested at a concentration of 50 μM in triplicate. […] A BACE1 IV inhibitor (Calbiochem, Merck; Nottingham, UK) [Stachel et al.] was used as a reference compound. […] IC50 values for all test compounds were calculated using non-linear regression (GraphPad Prism 5 [GraphPad Software, San Diego, CA, USA 5.00]) for the percentage of enzyme inhibition against the inhibitor concentration used.

[4] = biological target: Recombinant human Aβ1-42 peptide (Homo sapiens (Human), UniProt P05067); assay: Thioflavin T test, antiaggregation activity against beta-amyloid; details: 10 μM test compound, 1.5 μM Aβ1-42; read-out: inh. Aβ aggr. % inh
Experimental: The thioflavin T test [Levine III] was used for the determinations. Recombinant human Aβ1-42 peptide (HFIP pretreated, Merck Millipore, Darmstadt, Germany) was dissolved in DMSO to form a 75 μM stock solution. The solution was further diluted in HEPES buffer (150 mM HEPES, pH 7.4, 150 mM NaCl) to a concentration of 7.5 μM. Then, the Aβ1-42 solution was added to the test compounds (black 96-well plates were used) and diluted with thioflavin T solution (10 μM final concentration). The final mixture contained 1.5 μM Aβ1-42, 10 μM test compound, and 3% of DMSO. Fluorescence was measured every 300 s (excitation wavelength was 440 nm, emission wavelength was 490 nm) with continuous mixing between measurements. A multifunction microplate reader (Synergy H4; BioTek Instruments, Inc., Winooski, VT, USA) was used to measure the fluorescence. Fluorescence started increasing after approximately 4 hours, plateaued after 20 hours and remained virtually unchanged for the next 28 hours of incubation. The plateau-phase fluorescence intensities (in the presence and absence of test compounds) were averaged and the mean fluorescence values for the respective wells at t=0 h were subtracted from them. […] IC50 values were calculated using non-linear regression (GraphPad Prism 5 [GraphPad Software, San Diego, CA, USA 5.00]) for the percentage of aggregation inhibition against the inhibitor concentration used.

Chain of human plasma butyrylcholinesterase (hBuChE) (P06276 29-602): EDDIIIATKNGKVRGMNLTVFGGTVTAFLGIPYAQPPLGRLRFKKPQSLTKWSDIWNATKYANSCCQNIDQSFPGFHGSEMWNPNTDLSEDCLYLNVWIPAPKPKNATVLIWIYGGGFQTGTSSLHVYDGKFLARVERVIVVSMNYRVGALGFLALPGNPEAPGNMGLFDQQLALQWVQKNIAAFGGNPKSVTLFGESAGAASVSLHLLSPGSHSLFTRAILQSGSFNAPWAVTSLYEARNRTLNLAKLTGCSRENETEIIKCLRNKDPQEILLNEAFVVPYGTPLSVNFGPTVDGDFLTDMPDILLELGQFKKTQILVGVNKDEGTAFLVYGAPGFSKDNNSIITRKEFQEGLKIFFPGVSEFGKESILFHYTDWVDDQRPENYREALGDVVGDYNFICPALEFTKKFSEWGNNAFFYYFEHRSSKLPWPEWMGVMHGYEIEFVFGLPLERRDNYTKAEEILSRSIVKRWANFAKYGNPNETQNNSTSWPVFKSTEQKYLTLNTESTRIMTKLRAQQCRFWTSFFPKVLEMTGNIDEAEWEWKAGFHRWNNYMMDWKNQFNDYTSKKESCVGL
Chain of horse plasma butyrylcholinesterase (eqBuChE) (P81908 whole entry): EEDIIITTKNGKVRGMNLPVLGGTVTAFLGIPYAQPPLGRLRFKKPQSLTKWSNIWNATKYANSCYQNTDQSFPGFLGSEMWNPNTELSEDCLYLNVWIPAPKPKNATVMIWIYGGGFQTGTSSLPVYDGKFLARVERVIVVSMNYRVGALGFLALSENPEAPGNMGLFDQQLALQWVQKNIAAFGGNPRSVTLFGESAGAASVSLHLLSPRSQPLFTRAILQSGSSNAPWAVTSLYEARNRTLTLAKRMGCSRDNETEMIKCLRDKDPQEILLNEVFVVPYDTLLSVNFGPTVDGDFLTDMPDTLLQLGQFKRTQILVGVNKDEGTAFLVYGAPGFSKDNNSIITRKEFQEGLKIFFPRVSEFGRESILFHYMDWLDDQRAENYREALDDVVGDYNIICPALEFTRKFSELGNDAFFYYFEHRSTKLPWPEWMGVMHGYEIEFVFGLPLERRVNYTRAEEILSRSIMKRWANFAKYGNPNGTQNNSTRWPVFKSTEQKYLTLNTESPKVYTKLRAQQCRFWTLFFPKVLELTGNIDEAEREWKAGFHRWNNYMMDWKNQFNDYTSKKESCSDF
Chain of human recombinant beta-secretase (hBACE1) (P56817 46-501): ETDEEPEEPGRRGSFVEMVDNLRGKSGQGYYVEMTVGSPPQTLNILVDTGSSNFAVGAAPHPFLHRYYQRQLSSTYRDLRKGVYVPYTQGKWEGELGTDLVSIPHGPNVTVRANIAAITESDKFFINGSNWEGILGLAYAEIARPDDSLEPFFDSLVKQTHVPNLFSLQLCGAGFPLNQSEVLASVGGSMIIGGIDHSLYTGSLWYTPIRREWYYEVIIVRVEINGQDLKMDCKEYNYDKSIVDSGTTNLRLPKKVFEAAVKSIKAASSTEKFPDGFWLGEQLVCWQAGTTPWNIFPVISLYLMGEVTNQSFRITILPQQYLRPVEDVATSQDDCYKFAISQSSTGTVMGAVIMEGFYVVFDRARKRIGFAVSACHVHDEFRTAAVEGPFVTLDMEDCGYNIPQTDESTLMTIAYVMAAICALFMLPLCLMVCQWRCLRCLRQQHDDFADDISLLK
Chain of Recombinant human Aβ1-42 peptide (P05067 672-713): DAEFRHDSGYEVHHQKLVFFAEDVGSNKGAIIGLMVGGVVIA

Compound | pIC50 [1] | pIC50 [2] | pIC50 [3] | inhibition at 10 µM [4] [%] | inhibition at 1 µM [1] [%] | inhibition at 50 µM [3] [%]
O[C@@H](CNCc1ccccc1)[C@H](Cc1ccccc1)NC1c2ccccc2-c2ccccc21 [Compound 2, (2S,3S)-3-((9H-fluoren-9-yl)amino)-1-(benzylamino)-4-phenylbutan-2-ol] | 6.24 | 6.48 | 5.32 | 86.3 |  | 
CC(C)c1cccc(CNC[C@@H](O)[C@H](Cc2ccccc2)NC2c3ccccc3-c3ccccc32)c1 [Compound 4, (2R,3S)-3-((9H-fluoren-9-yl)amino)-1-((3-isopropylbenzyl)amino)-4-phenylbutan-2-ol] | 6.31 | 6.29 | 5.41 | 83.7 |  | 
CC(C)(C)c1ccc(CNC[C@H](O)[C@H](Cc2ccccc2)NC2c3ccccc3-c3ccccc32)cc1 [Compound 5, (2S,3S)-3-((9H-fluoren-9-yl)amino)-1-((4-(tert-butyl)benzyl)amino)-4-phenylbutan-2-ol] |  | 6.10 | 5.18 | 75.6 | 62 | 
O[C@H](CNCc1cccc(C(F)(F)F)c1)[C@H](Cc1ccccc1)NC1c2ccccc2-c2ccccc21 [Compound 8, (2R,3S)-3-((9H-fluoren-9-yl)amino)-4-phenyl-1-((3-(trifluoromethyl)benzyl)amino)-butan-2-ol] | 6.14 | 6.12 | 5.50 | 72.4 |  | 
C[C@H](NC[C@@H](O)[C@H](Cc1ccccc1)NC1c2ccccc2-c2ccccc21)c1ccccc1 [Compound 9, (2R,3S)-3-((9H-fluoren-9-yl)amino)-4-phenyl-1-(((S)-1-phenylethyl)amino)butan-2-ol] | 6.09 | 6.58 | 4.70 | 63 |  | 
CC(C)(NC[C@@H](O)[C@H](Cc1ccccc1)NC1c2ccccc2-c2ccccc21)c1ccccc1 [Compound 10, (2R,3S)-3-((9H-fluoren-9-yl)amino)-4-phenyl-1-((2-phenylpropan-2-yl)amino)butan-2-ol] | 5.93 | 6.46 | 4.76 | 90.8 |  | 
CC(C)(C)NC[C@H](O)[C@H](Cc1ccccc1)NC1c2ccccc2-c2ccccc21 [Compound 12, (2S,3S)-3-((9H-fluoren-9-yl)amino)-1-(tert-butylamino)-4-phenylbutan-2-ol] |  | 5.31 |  | 67.2 | 58.8 | 48.7
CC(C)(C)CNC[C@@H](O)[C@H](Cc1ccccc1)NC1c2ccccc2-c2ccccc21 [Compound 13, (2R,3S)-3-((9H-fluoren-9-yl)amino)-1-(neopentylamino)-4-phenylbutan-2-ol] |  | 5.93 | 5.07 | 80.2 | 61.3 | 
O[C@H](CNCC(F)(F)F)[C@H](Cc1ccccc1)NC1c2ccccc2-c2ccccc21 [Compound 14, (2R,3S)-3-((9H-fluoren-9-yl)amino)-4-phenyl-1-((2,2,2-trifluoroethyl)amino)butan-2-ol] |  | 5.97 |  | 82.5 | 67.9 | 36.8
O[C@@H](CNCC1CC1)[C@H](Cc1ccccc1)NC1c2ccccc2-c2ccccc21 [Compound 15, (2S,3S)-3-((9H-fluoren-9-yl)amino)-1-((cyclopropylmethyl)amino)-4-phenylbutan-2-ol] | 5.99 | 6.01 |  |  |  | 
CC(C)(C)c1ccc(CNC[C@H](O)[C@H](Cc2ccccc2)NC(=O)C2c3ccccc3-c3ccccc32)cc1 [Compound 18, N-((2S,3S)-4-((4-(tert-butyl)benzyl)amino)-3-hydroxy-1-phenylbutan-2-yl)-9H-fluorene-9-carboxamide] |  | 5.91 | 5.95 | 63.5 | 55.6 | 
O=C(CC1c2ccccc2-c2ccccc21)N[C@@H](Cc1ccccc1)[C@H](O)CNCc1cccc(C(F)(F)F)c1 [Compound 21, 2-(9H-fluoren-9-yl)-N-((2S,3R)-3-hydroxy-1-phenyl-4-((3-(trifluoromethyl)benzyl)-amino)butan-2-yl)acetamide] |  | 5.69 | 5.67 | < 10 | 54.3 | 
CC(C)(NC[C@@H](O)[C@H](Cc1ccccc1)NC(=O)C1c2ccccc2-c2ccccc21)c1ccccc1 [Compound 24, N-((2S,3R)-3-hydroxy-1-phenyl-4-((2-phenylpropan-2-yl)amino)butan-2-yl)-9H-fluorene-9-carboxamide] |  | 5.55 | 5.29 | 61 | 21.4 | 
CC(C)(NC[C@@H](O)[C@H](Cc1ccccc1)NC(=O)CC1c2ccccc2-c2ccccc21)c1ccccc1 [Compound 25, 2-(9H-fluoren-9-yl)-N-((2S,3R)-3-hydroxy-1-phenyl-4-((2-phenylpropan-2-yl)amino)-butan-2-yl)acetamide] |  | 5.90 | 5.30 | 63 | 71.7 | 
CC(C)(C)CNC[C@@H](O)[C@H](Cc1ccccc1)NC(=O)C1c2ccccc2-c2ccccc21 [Compound 26, N-((2S,3R)-3-hydroxy-4-(neopentylamino)-1-phenylbutan-2-yl)-9H-fluorene-9-carboxamide] |  | 5.96 |  | 39.5 | 61.1 | 54.5
